The target in assay [1] is T1, Beta-secretase 1 (Homo sapiens, UniProt P56817).
Description: Inhibition of recombinant memapsin 2
In assay [2] the target is Cathepsin D (Homo sapiens, UniProt P07339).
Description: Inhibition of human cathepsin D
The target in assay [3] is T1, Beta-secretase 1. This is another data set of the same source.
Description: Inhibition of memapsin 2 expressed in CHO cells

This passage reports Ki and IC50 results from ChEMBL document CHEMBL1139858, “Design, synthesis, and X-ray structure of potent memapsin 2 (beta-secretase) inhibitors with isophthalamide derivatives as the P2-P3-ligands” (J Med Chem, 2007).

T1 sequence (P56817 whole entry): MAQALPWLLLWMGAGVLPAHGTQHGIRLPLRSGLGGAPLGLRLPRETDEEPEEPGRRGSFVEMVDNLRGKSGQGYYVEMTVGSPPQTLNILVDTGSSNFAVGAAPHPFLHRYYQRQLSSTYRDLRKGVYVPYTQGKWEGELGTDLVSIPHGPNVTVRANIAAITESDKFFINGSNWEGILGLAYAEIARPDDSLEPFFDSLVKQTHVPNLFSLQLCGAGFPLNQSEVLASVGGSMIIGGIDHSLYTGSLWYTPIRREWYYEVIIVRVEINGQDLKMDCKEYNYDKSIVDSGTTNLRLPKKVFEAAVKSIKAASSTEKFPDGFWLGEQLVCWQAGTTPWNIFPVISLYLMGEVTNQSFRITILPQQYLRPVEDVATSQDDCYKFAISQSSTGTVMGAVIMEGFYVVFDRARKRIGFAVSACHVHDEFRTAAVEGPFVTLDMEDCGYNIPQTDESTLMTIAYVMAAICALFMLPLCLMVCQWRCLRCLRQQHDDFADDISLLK
Chain of Cathepsin D (P07339 65-162 limits assumed): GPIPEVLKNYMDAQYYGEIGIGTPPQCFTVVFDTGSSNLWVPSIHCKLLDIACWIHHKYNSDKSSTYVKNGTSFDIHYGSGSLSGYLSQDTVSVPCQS
Chain of Cathepsin D (P07339 169-412 limits assumed): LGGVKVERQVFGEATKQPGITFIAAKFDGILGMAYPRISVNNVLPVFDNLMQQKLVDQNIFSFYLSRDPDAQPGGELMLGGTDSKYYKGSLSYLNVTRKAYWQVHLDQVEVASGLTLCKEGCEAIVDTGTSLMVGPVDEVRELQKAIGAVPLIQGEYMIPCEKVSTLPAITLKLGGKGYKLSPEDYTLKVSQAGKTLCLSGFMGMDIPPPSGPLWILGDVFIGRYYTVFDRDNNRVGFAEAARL

As for `CCCNC(=O)c1cc(C(=O)N[C@@H](CC(C)C)[C@@H](O)C[C@@H](C)C(=O)N[C@H](C(=O)NC(C)C)C(C)C)cc(N(C)S(C)(=O)=O)c1`, the results for the Ki in assay [1] and in assay [2] were 52.5 nM and 483 nM, respectively. This compound gave an IC50 in assay [3] of 3600 nM.

`Cc1nc(C(C)NC(=O)c2cc(C(=O)N[C@@H](CC(C)C)[C@@H](O)C[C@@H](C)C(=O)N[C@H](C(=O)NC(C)C)C(C)C)cc(N(C)S(C)(=O)=O)c2)c(C)o1` (some centres not stated): the Ki turned out to be 27 nM in assay [1] and 490 nM in assay [2]. Also, in assay [3], the IC50 was found to be 10300 nM.

For the compound `Cc1nc(CNC(=O)c2cc(C(=O)N[C@@H](CC(C)C)[C@@H](O)C[C@@H](C)C(=O)N[C@H](C(=O)NC(C)C)C(C)C)cc(N(C)S(C)(=O)=O)c2)c(C)o1`, the Ki in assay [1] stood at 1.8 nM; in assay [2], 245 nM. The IC50 in assay [3] worked out at 1800 nM.

`CC(C)C[C@H](NC(=O)c1cc(C(=O)N[C@H](CO)c2ccccc2)cc(N(C)S(C)(=O)=O)c1)[C@@H](O)C[C@@H](C)C(=O)N[C@H](C(=O)NC(C)C)C(C)C` displayed a Ki in assay [1] of 438 nM. The same compound displayed an IC50 in assay [3] of 190000 nM.

Compound `CCCNC(=O)c1cccc(C(=O)N[C@@H](CC(C)C)[C@@H](O)C[C@@H](C)C(=O)N[C@H](C(=O)NC(C)C)C(C)C)c1` gave a Ki in assay [1] of 788 nM.
